# Test results taken from patent EP1001769B1, “SOLUBLE PRODRUGS OF PACLITAXEL” (BAKER NORTON PHARMACEUTICALS, INC., priority 1997, dated 1998).
# Counter-ions that a name gives are not always drawn.
# Experiments:
# Assay type in all cases: physicochemical
# [1] = Stability of paclitaxel-2'-MPA solution in water/polyethylene glycol, analysed by HPLC; conditions: freshly prepared solution 0.53 mg/ml in CH3CN, HPLC trace
# [2] = as above
# Procedure: The onium salt paclitaxel-2'-MPA was prepared by the method of Nicolaou et al., Angew. Chim. Int. Engl., 33:1583-1587 ([…]). A 2.40 mg/ml solution of the paclitaxel-2'-MPA was prepared by dissolving the salt (10.2 mg) in a solution of water (3.024 ml) and polyethylene glycol (1.234 ml). Samples of this solution were frozen. The frozen samples were slowly warmed to room temperature and homogenized with CH3CN (50 µl). An aliquot (50 µl) was removed and diluted to a final volume of 200 µl with deionized H2O and analyzed via HPLC (20 µl injection).
# [3] = Extraction from water into CH2Cl2; conditions: about 1 mg in 1 ml water stirred with 1 ml CH2Cl2; residue of organic phase weighed
# Procedure: Extraction: Three samples (1.2, 1.0 and 0.98 mg) were dissolved in water (1 ml) and vigorously stirred with CH2Cl2 (1 ml). The organic phase was transferred to a clean, tared vial and concentrated in vacuo. The residue was weighed and compared to the theoretical input to gauge the effectiveness of the extraction procedure. Average return for this extraction was about 44% of theoretical.
# [4] = Aqueous stability of the prodrug in H2O and 0.2M NaCl
# Procedure: Aqueous Stability: The stability of the prodrug in H2O and 0.2M NaCI was examined at both room temperature and under refrigerated conditions. Samples in H2O (0.54 mg in 2 ml) and NaCI (0.57 mg in 2 ml) at room temperature were examined at two minute time intervals (0 through 12 minutes), 2 hours and 24 hours. […] At 4°C the product concentration was unchanged at 24 and 48 hours but decreased to 90% after 72 hours. […] At 4°C the product concentration was unchanged at 24 hours, was 91% at 48 hours and was 88% at 72 hours.
# [5] = Solubility in deionized water; conditions: 0.97 and 0.80 mg in 0.5 ml deionized water, sonicated about 1 minute; 1.54 mg sample needed additional 0.1 ml; upper limit not attained
# Procedure: Solubility: Deionized water (0.5 ml) was added to three samples of the 2'-MPM (1.54 mg, 0.97 mg and 0.80 mg) and the flask sonicated for approximately one (1) minute.
# [6] = freshly prepared solution 0.53 mg/ml in CH3CN, HPLC trace
structure (smiles),measurement,setting,value
"CC(=O)O[C@H]1C(=O)[C@@]2(C)[C@H]([C@H](OC(=O)c3ccccc3)[C@]3(O)C[C@H](OC(=O)[C@H](Oc4cccc[n+]4C)[C@@H](NC(=O)c4ccccc4)c4ccccc4)C(C)=C1C3(C)C)[C@]1(OC(C)=O)CO[C@@H]1C[C@@H]2O [2'-MPA, Paclitaxel 2'-Methylpyridinium Acetate]",Paclitaxel peak,[1],15%
same,2'-MPA %,"[2]; 4°C, 1 Hour",85%
same,Paclita. %,"[2]; 4°C, 1 Hour",15%
same,2'-MPA %,"[2]; 4°C, 2 Weeks",79%
same,Paclita. %,"[2]; 4°C, 2 Weeks",9%
same,Unkno. %,"[2]; 4°C, 2 Weeks",10%
same,2'-MPA %,"[2]; 4°C, 6 Hours",75%
same,Paclita. %,"[2]; 4°C, 6 Hours",11%
same,Unkno. %,"[2]; 4°C, 6 Hours",14%
same,2'-MPA %,"[2]; 4°C, 18 Hours",73%
same,Paclita. %,"[2]; 4°C, 18 Hours",10%
same,Unkno. %,"[2]; 4°C, 18 Hours",17%
same,2'-MPA %,"[2]; 4°C, 18 Hours, listed as MPA salt",73%
same,2'-MPA %,"[2]; 4°C, 42 Hours",79%
same,Paclita. %,"[2]; 4°C, 42 Hours",9%
same,Unkno. %,"[2]; 4°C, 42 Hours",12%
same,2'-MPA %,"[2]; 4°C, 66 Hours",73%
same,Paclita. %,"[2]; 4°C, 66 Hours",11%
same,Unkno. %,"[2]; 4°C, 66 Hours",16%
same,2'-MPA %,"[2]; Room Temperature, 1 Hour",78%
same,Paclita. %,"[2]; Room Temperature, 1 Hour",14%
same,Unkno. %,"[2]; Room Temperature, 1 Hour",8%
same,2'-MPA %,"[2]; Room Temperature, 6 Hours",78%
same,Paclita. %,"[2]; Room Temperature, 6 Hours",14%
same,Unkno. %,"[2]; Room Temperature, 6 Hours",8%
same,2'-MPA %,"[2]; Room Temperature, 18 Hours",69%
same,2'-MPA %,"[2]; Room Temperature, 42 Hours",73%
same,Paclita. %,"[2]; Room Temperature, 42 Hours",17%
same,Unkno. %,"[2]; Room Temperature, 42 Hours",10%
same,2'-MPA %,"[2]; Room Temperature, 66 Hours",79%
same,Paclita. %,"[2]; Room Temperature, 66 Hours",13%
same,Unkno. %,"[2]; Room Temperature, 66 Hours",8%
same,2'-MPA %,"[2]; Room Temperature, 90 Hours",73%
same,Paclita. %,"[2]; Room Temperature, 90 Hours",15%
same,Unkno. %,"[2]; Room Temperature, 90 Hours",12%
same,2'-MPA peak,[2]; [6],75%
same,Unknown peak,[2]; [6],10%
"CC(=O)O[C@H]1C(=O)[C@@]2(C)[C@H]([C@H](OC(=O)c3ccccc3)[C@]3(O)C[C@H](OC(=O)[C@H](Oc4cccc[n+]4C)[C@@H](NC(=O)c4ccccc4)c4ccccc4)C(C)=C1C3(C)C)[C@]1(OC(C)=O)CO[C@@H]1C[C@@H]2O [Paclitaxel 2'-MPM, Paclitaxel-2'-Methylpyridinium Mesylate]",Average return for this extraction,[3],about 44 % of theoretical
same,product concentration,"[4]; H2O, 4°C, 24 hours",unchanged
same,product concentration,"[4]; H2O, 4°C, 48 hours",unchanged
same,product concentration,"[4]; H2O, 4°C, 72 hours",90%
same,product concentration,"[4]; H2O, room temperature, 2 hours",relatively unchanged
same,product concentration,"[4]; H2O, room temperature, 24 hours",56%
same,stability in aqueous solution,"[4]; aqueous solution, 4°C, 24 hours (summary of Example 2)",unchanged
same,"stability in aqueous solution, degraded to","[4]; aqueous solution, 4°C, 72 hours (summary of Example 2)",88-91%
same,product concentration,"[4]; saline solution (0.2M NaCl), 4°C, 24 hours",unchanged
same,product concentration,"[4]; saline solution (0.2M NaCl), 4°C, 48 hours",91%
same,product concentration,"[4]; saline solution (0.2M NaCl), 4°C, 72 hours",88%
same,drop of product concentration,"[4]; saline solution (0.2M NaCl), room temperature, 2 hours",1-2%
same,product concentration,"[4]; saline solution (0.2M NaCl), room temperature, 24 hours",70%
same,product concentration,"[4]; saline solution (0.2M NaCl), room temperature, first ten minutes",no apparent change
same,Solubility,[5],Solution was attained
